Bridges are numbered along the chain shown (N, C = ends). Roman numbers before positions name the chains, in order. Where no end group is shown, it is not given here.
Columns and labels:
L929 cells = assay: Cell proliferation (BrdU incorporation); format: cell-based; conditions: L929 cells
Protocol: 2000 L929 cells (ECACC no: 85011425) per well were seeded in a 96 well plate in full medium (containing 10% foetal calf serum) or starvation medium (serum-free). Peptides, ErbB1 kinase inhibitor PD153035 (Calbiochem), and EGF (Sigma-Aldrich) were added immediately after seeding of the cells (for experiments done in full serum) or after 8 hours of incubation (for experiments done in starvation medium) in the concentrations indicated in figures. Cells were grown for 6 hours, then 10 μM bromodeoxyuridine (BrdU) was added, and cells were grown for additional 18 hours. Then, BrdU incorporation in the cells was assayed using the Biotrak ELISA System, version 2 from Amersham Biosciences Europe GmbH (Buckinghamshire, UK) following the manufacturer's protocol.

[1] = biological target: T1, extracellular part of human ErbB2 (Fc chimeric protein) (Homo sapiens, UniProt P04626); assay: Surface plasmon resonance (SPR) binding analysis, ErbB2; conditions: peptide immobilized on sensor chip, mean ± SEM
T1 construct: the Fc protein fused to the extracellular parts of human ErbB2, ErbB3 or ErbB4; purchased R&D Systems Europe (Abingdon, UK)
T1 sequence (P04626 23-652 limits assumed, change not shown): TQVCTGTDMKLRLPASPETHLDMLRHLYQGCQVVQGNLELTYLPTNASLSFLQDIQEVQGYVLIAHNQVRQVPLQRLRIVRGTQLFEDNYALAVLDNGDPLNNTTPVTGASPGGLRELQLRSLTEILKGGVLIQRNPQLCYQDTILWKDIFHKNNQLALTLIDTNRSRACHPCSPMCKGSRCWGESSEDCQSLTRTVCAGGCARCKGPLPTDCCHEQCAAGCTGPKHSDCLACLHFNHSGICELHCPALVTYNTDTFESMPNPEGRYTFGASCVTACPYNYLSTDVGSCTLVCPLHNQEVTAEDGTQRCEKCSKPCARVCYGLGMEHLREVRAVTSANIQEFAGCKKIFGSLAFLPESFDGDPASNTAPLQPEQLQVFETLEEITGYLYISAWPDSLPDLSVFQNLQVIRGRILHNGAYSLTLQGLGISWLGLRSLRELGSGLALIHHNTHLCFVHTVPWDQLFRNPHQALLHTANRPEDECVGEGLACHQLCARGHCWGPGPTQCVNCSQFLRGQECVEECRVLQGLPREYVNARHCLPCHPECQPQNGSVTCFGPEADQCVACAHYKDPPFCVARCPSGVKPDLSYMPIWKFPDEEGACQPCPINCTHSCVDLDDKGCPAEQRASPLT
Protocol: (§1) Binding analyses were performed with the surface plasmon resonance (SPR)-based biosensor instrument BIAcore2000 (BIAcore AB, Uppsala, Sweden), at 25° C. using ready-made HBS-EP buffer (BIAcore AB) as running buffer. Peptides were immobilized on the surface of a CM5 sensor chip (BIAcore AB) using an amine coupling kit (Biosensor AB, Uppsala, Sweden) according to the manufacturer's instructions, at a flow rate of 5 μl/min. Briefly, carboxyl groups on the sensor chip surface were activated by injection of 35 μl activation solution followed by injection of peptide (50 μg/ml peptide in HBS-EP buffer, pH 7.4) until the desired level of immobilized peptide was reached. Unreacted peptide was washed out and unreacted activated groups were blocked by the injection of 35 μl 1 M ethanolamine. […] A reference surface was generated simultaneously under the same conditions but without peptide injection and used as a blank chip control. ErbB receptor proteins were injected at various concentrations at a flow rate of 20 μl/min, and binding to the peptides immobilized on the chip was measured in real-time. The curve corresponding to the difference between signals on flow cells with immobilized peptide and the signal on the blank flow cell was used for analysis. […] Data were analyzed by nonlinear curve fitting using the manufacturer' software. […]

[2] = biological target: T2, extracellular part of human ErbB4 (Fc chimeric protein) (Homo sapiens, UniProt Q15303); assay: Surface plasmon resonance (SPR) binding analysis, ErbB4; conditions: peptide immobilized on sensor chip, mean ± SEM
T2 construct: the Fc protein fused to the extracellular parts of human ErbB2, ErbB3 or ErbB4; purchased R&D Systems Europe (Abingdon, UK)
T2 sequence (Q15303 26-651 limits assumed): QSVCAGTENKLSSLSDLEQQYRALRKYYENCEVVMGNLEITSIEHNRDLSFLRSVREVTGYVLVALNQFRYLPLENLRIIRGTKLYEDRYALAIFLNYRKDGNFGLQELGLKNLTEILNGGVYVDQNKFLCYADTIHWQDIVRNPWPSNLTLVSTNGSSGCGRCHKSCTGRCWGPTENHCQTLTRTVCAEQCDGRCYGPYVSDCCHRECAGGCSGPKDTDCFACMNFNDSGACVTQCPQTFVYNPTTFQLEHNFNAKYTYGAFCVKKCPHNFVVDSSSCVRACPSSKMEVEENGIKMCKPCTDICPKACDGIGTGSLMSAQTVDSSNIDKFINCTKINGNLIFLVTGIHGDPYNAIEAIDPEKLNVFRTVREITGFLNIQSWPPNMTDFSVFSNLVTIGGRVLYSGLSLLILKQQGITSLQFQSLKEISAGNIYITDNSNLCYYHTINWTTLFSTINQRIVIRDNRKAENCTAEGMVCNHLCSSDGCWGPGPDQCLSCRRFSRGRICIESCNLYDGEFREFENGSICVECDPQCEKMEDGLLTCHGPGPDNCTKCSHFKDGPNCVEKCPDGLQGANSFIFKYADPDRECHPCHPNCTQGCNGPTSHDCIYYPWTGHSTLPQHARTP
Protocol: as §1

HN5 cells = assay: Cell viability / cell growth (MTS staining); format: cell-based, human; conditions: absence and presence of EGF, absence and presence of serum (FIGS. 6A and B)
Protocol: 2000 HN5 cells per well were seeded in a 96 well plate in full medium (containing 10% fetal calf serum) or starvation medium (serum-free). After 12 hours of incubation, peptides or ErbB1 kinase inhibitor PD153035 (Calbiochem) and/or EGF (Sigma-Aldrich) were added in the concentrations indicated in figures. Cells were grown for 72 hours, then 20 μl MTS One Solution Reagent (Promega, Madison, Wis., USA) were added per 100 μl culture medium in each well, and the plates were incubated for 1-2 hours at 37° C., followed by absorbance measurements at 490 nm.

ErbB1 = ErbB1 (Homo sapiens, UniProt P00533); assay: ErbB receptor phosphorylation, HN5 cells; format: cell-based; design: the ErbB1 overexpressing human head and neck cancer cell line HN5; endogenous in cells; host or cells: HN5 human head and neck cancer cells; conditions: 100 μM peptide for 30 min, 10 ng/ml EGF for 10 min (FIG. 8)
Protocol: The cells employed for this assay were NR6 wtEGFR cells, which are fibroblastoid cells stably transfected with ErbB1, and human head and neck tumor-derived HN5 cell. Confluent NR6 wtEGFR or HN5 cells were treated with peptide in the indicated concentrations for 30 min, then stimulated with 10 ng/ml EGF (Sigma-Aldrich, St. Louis, Mo., USA) for 10 min. Cells were lysed in lysis buffer (1% (v/v) Triton X-100, 150 mM NaCl, 10 mM Tris pH 7.4, 1 mM EDTA, 1 mM EGTA, 0.5% (v/v) NP-40, phosphatase inhibitors (Phosphatase Inhibitor Cocktail Set II from Calbiochem, La Jolla, Calif., USA) and protease inhibitors (Complete™ Protease Inhibitor Cocktail from Boehringer Mannheim Biochemica, Mannheim, Germany)), and cleared lysate samples containing equal amounts of total protein (as determined by a bicinchoninic acid assay (Pierce, Rockford, Ill., USA)) were subjected in duplicates to 4-12% SDS-PAGE and immunoblotting. One membrane was probed with anti-phospho-EGFR (phosphotyrosine 1068) antibody (Cell Signaling Technology, Danvers, Mass., USA), the other with anti-EGFR antibody (Cell Signaling Technology). Detection was carried out using horseradish peroxidase (HRP)-conjugated secondary antibodies (DAKO, Denmark) and enhanced chemiluminiscence (Pierce). The intensity of bands was quantified using densitometric analysis employing the software package GeneTools (Syngene, Cambridge, UK).

[3] = full medium, BrdU incorporation (FIG. 2, FIG. 3)
[4] = starvation medium, 10 or 100 ng/ml EGF, BrdU incorporation (FIG. 4)

Row | Compound | effect on EGF-induced cell proliferation (L929 cells; [3]) | KD for binding to ErbB2 [1] | KD for binding to ErbB4 [2] | effect on EGF-induced cell proliferation (L929 cells; [4]) | effect on HN5 cell growth (HN5 cells) | other results
1 | Inherbin3n: truncated peptide constituting the N-terminal half of the Inherbin3 peptide (possibly B3dln, SEQ ID NO: 36) (PLVYNKLT; B3dln peptide) | inhibited EGF-induced cell proliferation to the same extent as Inherbin3 |  |  |  |  | 
2 | I: LVYNKLTFQLEPNPHTKKK / II: LVYNKLTFQLEPNPHTKK / III: LVYNKLTFQLEPNPHTK / IV: LVYNKLTFQLEPNPHTK (amide I:18-IV:C, I:19-II:C, II:18-III:C) [Inherbin3d] |  | No binding | No binding | inhibited EGF-induced cell proliferation |  | peptide doses that significantly inhibited cell proliferation (L929 cells; proliferation induced by either 10 or 100 ng/ml EGF (FIG. 4)): ≥ 0.6 µM
3 | COc1cc2ncnc(Nc3cccc(Br)c3)c2cc1OC [PD153035, reference compound] |  |  |  | blocked cell proliferation induced by stimulation with either 10 or 100 ng/ml EGF | strongly inhibited growth of the cells both in absence and presence of EGF-stimulation and in the absence and presence of serum | 
4 | KHKLPYNFNLETTVQPL (also: tetrameric dendrimer on lysine backbone) [Scr-Inherbin3d, reference compound] |  |  |  |  | no significant effects on HN5 cell growth | 
5 | I: H-MLYNPTTYQMDVNPEGKKK / II: H-MLYNPTTYQMDVNPEGKK / III: H-MLYNPTTYQMDVNPEGK / IV: H-MLYNPTTYQMDVNPEGK (amide I:18-IV:C, I:19-II:C, II:18-III:C) [Inherbin 1DL, MLYNPTTYQMDVNPEGK] |  | No binding | No binding |  |  | 
6 | VTYNTDTFESMPNPEGR (Inherbin 2 peptide) [Inherbin2] | able to inhibit EGF-induced cell proliferation significantly |  |  |  |  | effect on EGF-induced ErbB1 phosphorylation (ErbB1): not statistically significant

Source: patent US7897723B2, “ErbB receptor-derived peptide fragments” (Københavns Universitet, priority 2006, dated 2011)
